In patent US4680284A, “Modified phenylalanine peptidylaminodiols” (Abbott Laboratories, priority 1986, dated 1987):

biological target: T1, human renal renin (Homo sapiens, UniProt P00797); experiment: In vitro inhibition of human renal renin (angiotensin I formation measured by radioimmunoassay); type: biochemical; details: human renal renin with human renin substrate (angiotensinogen), 37° C., pH 6.0
T1 construct: human renal renin, free from acid proteolytic activity; from tissue
T1 sequence (P00797 67-406): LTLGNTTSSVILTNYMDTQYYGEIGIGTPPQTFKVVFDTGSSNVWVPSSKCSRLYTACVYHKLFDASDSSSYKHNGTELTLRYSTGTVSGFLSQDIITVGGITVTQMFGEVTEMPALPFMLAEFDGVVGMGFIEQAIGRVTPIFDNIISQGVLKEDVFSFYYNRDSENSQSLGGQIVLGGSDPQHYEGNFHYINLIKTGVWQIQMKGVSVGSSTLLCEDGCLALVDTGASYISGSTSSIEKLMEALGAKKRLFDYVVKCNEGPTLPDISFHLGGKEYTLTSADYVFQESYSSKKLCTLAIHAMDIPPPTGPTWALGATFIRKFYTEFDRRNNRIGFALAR

Point of comparison: `CCOC(=O)NC1(C(=O)N[C@@H](Cc2c[nH]cn2)C(=O)N[C@@H](CC2CCCCC2)[C@@H](O)[C@@H](O)CC(C)C)Cc2ccccc2C1` [Example 5, EtOC-AICA-His Amide of 2(S)-Amino-1-cyclohexyl-3(R),4(S)-dihydroxy-6-methylheptane], IC50 15 nM. Against it:
- CC(C)C[C@H](O)[C@H](O)[C@H](CC1CCCCC1)NC(=O)[C@H](Cc1c[nH]cn1)NC(=O)C1(N)Cc2ccccc2C1 [Example 7, AICA-His Amide of 2(S)-Amino-1-cyclohexyl-3(R),4(S)-dihydroxy-6-methylheptane] — 20-fold higher, 300 nM
- CCOC(=O)NC1(C(=O)N[C@@H](Cc2c[nH]cn2)C(=O)N[C@@H](CC2CCCCC2)[C@@H](O)[C@@H](O)CC(C)C)CCc2ccccc2C1 (stereo partly drawn) [Example 10, EtOC-(R,S)-ATCA-His Amide of 2(S)-Amino-1-cyclohexyl-3(R),4(S)-dihydroxy-6-methylheptane] — 3-fold lower, 5 nM
- CCOC(=O)N1Cc2ccccc2CC1C(=O)N[C@@H](Cc1c[nH]cn1)C(=O)N[C@@H](CC1CCCCC1)[C@@H](O)[C@@H](O)CC(C)C (stereo partly drawn) [Example 13, EtOC-TIC-His Amide of 2(S)-Amino-1-cyclohexyl-3(R),4(S)-dihydroxy-6-methylheptane] — 1.5-fold lower, 10 nM
- CC(C)C[C@H](O)[C@H](O)[C@H](CC1CCCCC1)NC(=O)[C@H](Cc1c[nH]cn1)NC(=O)C1Cc2ccccc2C(=O)N1 (stereo partly drawn) [Example 15, OTIC-His Amide of 2(S)-Amino-1-cyclohexyl-3(R),4(S)-dihydroxy-6-methylheptane] — 6.7-fold higher, 100 nM
- CC(C)C[C@H](O)[C@H](O)[C@H](CC1CCCCC1)NC(=O)[C@H](Cc1c[nH]cn1)NC(=O)[C@@](C)(N)Cc1ccccc1 [Example 17, AMPA-His Amide of 2(S)-Amino-1-cyclohexyl-3(R),4(S)-dihydroxy-6-methylheptane] — 1.5-fold lower, 10 nM
- CC(=O)N[C@@](C)(Cc1ccccc1)C(=O)N[C@@H](Cc1c[nH]cn1)C(=O)N[C@@H](CC1CCCCC1)[C@@H](O)[C@@H](O)CC(C)C [Example 19, Acetyl-AMPA-His Amide of 2(S)-Amino-1-cyclohexyl-3(R),4(S)-dihydroxy-6-methylheptane] — 1.7-fold lower, 9 nM
- CC(C)C[C@H](O)[C@H](O)[C@H](CC1CCCCC1)NC(=O)[C@H](Cc1c[nH]cn1)NC(=O)C(N)(Cc1ccccc1)Cc1ccccc1 [Example 21, ADBA-His Amide of 2(S)-Amino-1-cyclohexyl-3(R),4(S)-dihydroxy-6-methylheptane] — 1.7-fold higher, 25 nM
